What was measured:
[1] = system: intact cells in hippocampus and cortex; assay: Ex.4 therapeutic HIE rat model: intact cell counting; format: in vivo
Method: Paraformaldehyde-fixed paraffin embedded samples of the removed brains were coronally sectioned at the same level of the hippocampus region in accordance to the Paxinos rat brain atlas (Paxinos and Watson 2007. In: The rat brain in stereotaxic coordinates, 6th edition). Thickness of sections was 5 μm. Hematoxylin-eosin staining was performed. Briefly, sections were deparaffinized in xylene and rehydrated in graded ethanol concentrations before staining. Slides were stained with hematoxylin, rinsed for a few seconds in water, then placed in 1% eosin and washed, dehydrated, and coverslipped.
Intact cell counting was performed on hematoxylin-eosin-stained sections of the rat pups brains at magnification 400× in 3 fields of the respective brain area. Countings were performed in cortex and hippocampus (regions: dentate gyrus (DG), subgranular zone (SGZ), cornu ammonis (CA1, CA2/CA3)). The sections were analyzed with the aid of a microscope (Olympus BX51, Olympus, Tokyo, Japan), an image scanner (DotSlide Digital Virtual Microscopy, Olympus, Germany) and ImageJ software (NIH, US).
Intact cells are uninjured. Injured cells are characterized by a pale eosinophilic staining along with non-uniform nuclear densities-shrunken, condensed, or pale and enlarged.
To study the therapeutic effect of estetrol, newborn rat pups were assigned to one of the following 6 groups at postnatal day 7: sham group (n=29), vehicle group (n=20), 1 mg/kg E4 group (n=16), 5 mg/kg E4 group (n=19), 10 mg/kg day E4 (n=17) and 50 mg/kg day E4 group (n=15). At postnatal day 7 animals were anesthetized with isoflurane (induction, 3.0%; maintenance, 1.5%), and the rat pups from vehicle and E4 groups passed through surgery encompassing left common carotid artery double ligation and cut. After surgery, the pups were returned to their dams and allowed to recover for 1 hour. The pups were then placed in a humidified hypoxic in vivo cabinet (CoyLab). Hypoxia was produced by the inhalation of 11%-8% of oxygen balanced by nitrogen at decreased concentration of oxygen for 20 minutes, followed by inhalation of 8% oxygen and 92% nitrogen at constant concentration for 35 minutes. All the manipulations were performed at 37° C.
Upon retrieval from the hypoxia chamber the rat pups were injected intraperitoneally either by vehicle (vehicle group) or by E4 (1 mg/kg, 5 mg/kg, 10 mg/kg or 50 mg/kg) in accordance to the group assignment. The animals from the sham group went through similar procedures but proceeded neither left common carotid artery ligation and cut followed by hypoxia nor vehicle or estetrol administration. Rat pups recovered with their dams until being sacrificed at postnatal day 14.

[2] = system: glial fibrillary acidic protein (GFAP); assay: Ex.8 neuroprotective HIE rat model: blood serum GFAP ELISA; format: in vivo
Method: Newborn rat pups were assigned to one of the following 14 groups from postnatal day 4 (FIG. 23(A)): Sham group (n=12), Vehicle group (n=17), 5 mg/kg/day E4 (n=13), 10 mg/kg/day E4 (n=10), 5 mg/kg/day E4+1.6 mg/kg/day PROG (n=11), 10 mg/kg/day E4+1.6 mg/kg/day PROG (n=11), 5 mg/kg/day E4+16 mg/kg/day PROG (n=11), 10 mg/kg/day E4+16 mg/kg/day PROG (n=11), 5 mg/kg/day E4+136 ng//kg/day E2 (n=11), 10 mg/kg/day E4+136 ng/kg/day E2 (n=11), 5 mg/kg/day E4+1.6 mg/kg/day PROG+136 ng/kg/day (n=13) E2, 10 mg/kg/day E4+1.6 mg/kg/day PROG+136 ng/kg/day E2 (n=16), 5 mg/kg/day E4+16 mg/kg/day PROG+136 ng/kg/day E2 (n=11), 10 mg/kg/day E4+16 mg/kg/day PROG+136 ng/kg/day groups (n=13). Intraperitoneal injections of the pups from study groups were performed from postnatal day 4 to postnatal day 7 inclusively. At day 7, 30 minutes after last injection, animals were anesthetized with isoflurane (induction, 3.0%; maintenance, 1.5%), and the rat pups from vehicle and all the other groups, except the sham group, passed through surgery encompassing left common carotid artery double ligation and cut. After the procedure, the pups were returned to their dams and were allowed to recover for 1 hour. The pups were then placed in the humidified hypoxic in vivo cabinet (CoyLab, Grass Lake, Mich., USA). […]

In the case of `C[C@]12CC[C@@H]3c4ccc(O)cc4CC[C@H]3[C@@H]1[C@@H](O)[C@@H](O)[C@@H]2O` [E4, 1,3,5(10)-estratrien-3,15α,16α,17β-tetrol], the “number of intact cells per visual field” value ([1]; 1 mg/kg E4 single ip dose after HI, CA1) is reported as 51.5±2.5, the “number of intact cells per visual field” value ([1]; 1 mg/kg E4 single ip dose after HI, CA2/CA3) is reported as 33.9±4.306 and the “number of intact cells per visual field” value ([1]; 1 mg/kg E4 single ip dose after HI, cortex) is reported as 42.4±4.865. The “number of intact cells per visual field” value ([1]; 5 mg/kg E4 single ip dose after HI, CA1) was 45.3±2.989, the “number of intact cells per visual field” value ([1]; 5 mg/kg E4 single ip dose after HI, CA2/CA3) was 33.8±4.704 and the “number of intact cells per visual field” value ([1]; 5 mg/kg E4 single ip dose after HI, cortex) was 57.1±7.012. For the same compound, the “number of intact cells per visual field” value ([1]; 10 mg/kg E4 single ip dose after HI, CA1) was 46.0±3.19, the “number of intact cells per visual field” value ([1]; 10 mg/kg E4 single ip dose after HI, CA2/CA3) was 35.2±3.169 and the “number of intact cells per visual field” value ([1]; 10 mg/kg E4 single ip dose after HI, cortex) was 56.9±5.958. The “number of intact cells per visual field” value ([1]; 50 mg/kg E4 single ip dose after HI, CA1) was 46.6±5.336, the “number of intact cells per visual field” value ([1]; 50 mg/kg E4 single ip dose after HI, CA2/CA3) was 30.5±2.527 and the “number of intact cells per visual field” value ([1]; 50 mg/kg E4 single ip dose after HI, cortex) was 54.5±3.403. The “concentration of GFAP in blood serum” value ([2]; 5 mg/kg/day, PND14) was 6220.49 ± 1763.17 pg/mL and the “concentration of GFAP in blood serum” value ([2]; 10 mg/kg/day E4, PND14) was 12413.45 ± 2243.05 pg·mL.
